From patent publication US20130184273A1, “BICYCLIC PYRIMIDINES” (Bayer Intellectual Property GmbH, priority 2010, published 2013)

Legend:
[1] = test system: p-AKT S473 in PC3 human prostate tumours; test: In vivo xenograft mechanism of action study; set-up: species or system athymic nude mice; details: PC3 tumours xenografted onto nude mice, treated once with 50 mg/kg p.o., 5 hours post treatment
Description: To this extent PC3 human prostate tumours were xenografted onto athymic nude mice. PC3 tumour cells were cultivated according to ATCC protocols in recommended media contained 10% FCS and harvested for transplantation in a subconfluent (70%) state. 3×10^6 tumour cells suspended in 50% Matrigel were subcutaneously implantated into the inguinal region of male mice. Tumours were allowed to grow to the predetermined size of 60-80 mm^2. When the tumours were approximately in size, the animals were randomized to treatment and control groups (groups size: 9 animals) and treatment was started. Animals were treated once with 50 mg/kg compound or vehicle per oral administration (p.o.) carried out via a gastric tube. Treatment of each animal was based on individual body weight. At 2, 5 and 24 hours post treatment 3 animals each were sacrificed and the PC3 tumours excised. Tumour samples of approximately 5×5×5 mm were lysed on ice in MSD lysis buffer in the presence of protease and phosphatase inhibitors using Tissue Lyzer (Qiagen, Germany). The levels of p-AKT S473 in extracts from tumour tissue were analysed in an ELISA based assay. This assay is based on the “Akt Duplex” of the MULTI-SPOT® Assay System (Fa. Meso Scale Discovery, Cat #N41100B-1) following manufacturers instructions. Each assay used 20 μg of protein extract and measured total AKT and p-AKT content simultaneously in one well. All measurements where at least done in duplicates and confirmed by independent repetition.
Values for P-AKT are expressed as percentage of P-AKT level compared to total-AKT content of the extracts. Vehicle treated tumours were analyzed to determine the basal level of P-AKT in this model and used as a normalization control to determine the % P-AKT relative to vehicle levels.

[2] = test system: KPL-4 breast cancer cell line; test: Tumor cell proliferation assay (CellTiter-Glo); format: cell-based; details: KPL4, 72 h drug exposure
Experimental: Compounds were tested in a cell-based assay that measures the capacity of the compounds to inhibit tumour cell proliferation following a 72 h drug exposure. Cell viability is determined using CellTiter-Glow® (CTG, Promega, cat #G7571/2/3). The CellTiter-Glo® Luminescent Cell Viability Assay is a homogeneous method to determine the number of viable cells in culture. Detection is based on using the luciferase reaction to measure the amount of ATP from viable cells. The amount of ATP in cells correlates with cell viability. Within minutes after a loss of membrane integrity, cells lose the ability to synthesize ATP, and endogenous ATPases destroy any remaining ATP; thus the levels of ATP fall precipitously.
Cells were plated at 3000-5000 cells/well (depending on the cell lines) in 90 μL growth medium on MTPs (Corning; #3603, black plate, clear flat bottom). For each cell line assayed, cells were plated onto a separate plate for determination of […] at t=0 hour and t=72 hour time points. Following overnight incubation at 37° C., chemiluminescence values for the t=0 samples were determined after adding 10 μl medium and 100 μl CTG solution according to manufacture protocol. Plates for the t=72 hour time points were treated with compounds diluted into growth medium at ten times final concentration added in 10 μL to the cell culture plate. Cells were then incubated for 72 hours at 37° C. Chemiluminescence values for the t=72 hour samples were determined. […] Experiments were controlled using a reference compound as standard.

[3] = test system: phospho-AKT at S473 in KPL4 breast tumour cell line; test: Cellular p-AKT1/2/3-S473 assay; format: cell-based; details: KPL4 cells, treated with compounds for 2 hours; read-out: pAKT-S743 median IC50
Experimental: The molecular mechanism of action was investigated in a set of experiments to assess the inhibition of the PI3K-AKT-mTOR pathway in responsive cell lines such as KPL4 breast tumour cell line (PIK3CAH1047R, HER20/E and hormone independent). The phospho-substrates of PI3K-AKT-mTOR axis were used as the read-outs to reflect pathway inhibition. Cells were seeded at 60-80% confluency per well in 96-well cell culture plates. After overnight incubation at 37° C. 5% CO2, cells were treated with compounds and vehicle at 37° C. for 2 hours. Thereafter, cells were lysed in 150 μl lysis buffer and the levels of phospho-AKT at T308 and S473 and p-4E-BP1 at T70 sites were determined with the corresponding AlphaScreen® SureFire® assay kits (Perkin Elmer: 4E-BP1 Assay Kit Cat # TRG4E2S10K; Akt 1/2/3 p-Ser 473 #TGRA4S500 and Akt 1/2/3 p-Thr 308 #TGRA3S500 as well as IgG detection Kit #6760617M) as described in the manuals. All measurements where at least done in duplicates and confirmed by independent repetition.
Alternatively pAKT-S473 was measured using the “Akt Duplex” of the MULTI-SPOT® Assay System (Fa. Meso Scale Discovery, Cat#N41100B-1) following manufacturers instructions. Each assay used 20 μg of protein extract and measured total AKT and p-AKT content simultaneously in one well. All measurements where at least done in duplicates and confirmed by independent repetition. Values for P-AKT are expressed as percentage of P-AKT level compared to total-AKT content of the extracts.

SMILES	P-AKT % relative to control at 5 hours [1] [%]	IC50 [2] [nM]	IC50 [3] [nM]
Cc1nc2nc(-c3ccc(C4(N)CCC4)cc3)c(-c3ccccc3)cn2n1 [Example 1-0, 1-[4-(2-methyl-6-phenyl-[1,2,4]triazolo[1,5-a]pyrimidin-5-yl)-phenyl]-cyclobutylamine]	3.2	3220	–
Cc1cn2cc(-c3ccccc3)c(-c3ccc(C4(N)CCC4)cc3)nc2n1 [Example 2-1, 1-[4-(2-Methyl-6-phenyl-imidazo[1,2-a]pyrimidin-7-yl)-phenyl]-cyclobutylamine]	6.7	1970	–
CS(=O)(=O)c1ccc(-c2cnc3nc(-c4ccc(C5(N)CCC5)cc4)c(-c4ccccc4)cn23)cc1 [Example 4-0, 1-{4-[3-(4-Methansulfonyl-phenyl)-6-phenyl-imidazo[1,2-a]pyrimidin-7-yl]-phenyl}-cyclobutylamine]	–	1270	230
Cn1cc(-c2nc3nc(-c4ccc(C5(N)CCC5)cc4)c(-c4ccccc4)cn3n2)cn1 [Example 5-2, 1-{4-[2-(1-methyl-1H-pyrazol-4-yl)-6-phenyl-[1,2,4]triazolo[1,5-a]pyrimidin-5-yl]-phenyl}-cyclobutylamine]	17.9	930	130
NC1(c2ccc(-c3nc4ncc(-c5ccc(F)cc5)n4cc3-c3ccccc3)cc2)CCC1 [Example 6-0, 1-{4-[3-(4-Fluorophenyl)-6-phenyl-imidazo[1,2-a]pyrimidin-7-yl]-phenyl}-cyclobutylamine]	–	2540	920
NC(=O)c1cccc(-c2cnc3nc(-c4ccc(C5(N)CCC5)cc4)c(-c4ccccc4)cn23)c1 [Example 6-2, 3-{7-[4-(1-Amino-cyclobutyl)-phenyl]-6-phenyl-imidazo[1,2-a]pyrimidin-3-yl}-benzamide]	–	10000	1150
NC1(c2ccc(-c3nc4ncc(-c5cn[nH]c5)n4cc3-c3ccccc3)cc2)CCC1 [Example 6-3, 1-{4-[6-Phenyl-3-(1H-pyrazol-4-yl)-imidazo[1,2-a]pyrimidin-7-yl]-phenyl}-cyclobutylamine]	–	5110	240
